Literature values, collected in patent publication US10172922B2, “Rapid-acting insulin compositions” (Eli Lilly and Company, priority 2014, dated 2019).

Conditions: on a molar basis

## 28^B-L-Lysine-29^B-L-proline human insulin [Insulin lispro]
  Potency relative to human insulin: equipotent to human insulin on a molar basis
